Assays:
Assay in all cases: relative viability (nuclei count vs DMSO), 5 days (fraction); higher = more cells survive
201T = tested on: 201T
How it was run: (§1)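 Lung cancer cell lines were seeded in 1536-well plates and dosed by pin tool the next day, with either a single drug or a fixed anchor-drug dose combined with five library-drug doses (not always all listed) spaced in √10 steps. Five days later, one step fixed the cells and stained their nuclei (final 0.05% Triton X-100, 1% formaldehyde, 1 ug/ml Hoechst), and nuclei were counted on 4× images. Relative viability is the nuclei count in treated wells divided by the count in vehicle wells, and each value is the median of duplicate plates.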

A-427 = tested on: A-427
How it was run: as §1

BEN = tested on: BEN
How it was run: as §1

COR-L 105 = tested on: COR-L 105
How it was run: as §1

COR-L23 = tested on: COR-L23
How it was run: as §1

EKVX = tested on: EKVX
How it was run: as §1

HARA = tested on: HARA
How it was run: as §1

HCC-15 = tested on: HCC-15
How it was run: as §1

HCC-44 = tested on: HCC-44
How it was run: as §1

HCC-827 = tested on: HCC-827
How it was run: as §1

LK-2 = tested on: LK-2
How it was run: as §1

NCI-H1437 = conditions: first compound 0.005 µM
How it was run: as §1

CC1(C)CCC(c2ccc(Cl)cc2)=C(CN2CCN(c3ccc(C(=O)NS(=O)(=O)c4ccc(N[C@H](CCN5CCOCC5)CSc5ccccc5)c(S(=O)(=O)C(F)(F)F)c4)cc3)CC2)C1 [Navitoclax] + Nc1nc2[nH]cc(CCc3ccc(C(=O)N[C@@H](CCC(=O)O)C(=O)O)cc3)c2c(=O)[nH]1 [Pemetrexed] (partner 0.2 µM)
relative viability (201T; first compound 0.005 µM): 0.299
relative viability (201T; first compound 0.01581 µM): 0.31
relative viability (201T; first compound 0.05 µM): 0.34
relative viability (201T; first compound 0.1581 µM): 0.321
relative viability (201T; first compound 0.5 µM): 0.357
relative viability (A-427; first compound 0.005 µM): 1.01
relative viability (A-427; first compound 0.01581 µM): 0.896
relative viability (A-427; first compound 0.05 µM): 0.968
relative viability (A-427; first compound 0.1581 µM): 1.14
relative viability (A-427; first compound 0.5 µM): 1.04
relative viability (BEN; first compound 0.005 µM): 0.781
relative viability (BEN; first compound 0.01581 µM): 0.841
relative viability (BEN; first compound 0.05 µM): 0.74
relative viability (BEN; first compound 0.1581 µM): 0.803
relative viability (BEN; first compound 0.5 µM): 0.418
relative viability (COR-L 105; first compound 0.005 µM): 0.979
relative viability (COR-L 105; first compound 0.01581 µM): 1.35
relative viability (COR-L 105; first compound 0.05 µM): 0.921
relative viability (COR-L 105; first compound 0.1581 µM): 1.13
relative viability (COR-L 105; first compound 0.5 µM): 1.17
relative viability (COR-L23; first compound 0.005 µM): 0.208
relative viability (COR-L23; first compound 0.01581 µM): 0.188
relative viability (COR-L23; first compound 0.05 µM): 0.221
relative viability (COR-L23; first compound 0.1581 µM): 0.179
relative viability (COR-L23; first compound 0.5 µM): 0.201
relative viability (EKVX; first compound 0.005 µM): 0.433
relative viability (EKVX; first compound 0.01581 µM): 0.389
relative viability (EKVX; first compound 0.05 µM): 0.4
relative viability (EKVX; first compound 0.1581 µM): 0.387
relative viability (EKVX; first compound 0.5 µM): 0.366
relative viability (HARA; first compound 0.005 µM): 0.189
relative viability (HARA; first compound 0.01581 µM): 0.232
relative viability (HARA; first compound 0.05 µM): 0.255
relative viability (HARA; first compound 0.1581 µM): 0.236
relative viability (HARA; first compound 0.5 µM): 0.218
relative viability (HCC-15; first compound 0.005 µM): 0.227
relative viability (HCC-15; first compound 0.01581 µM): 0.26
relative viability (HCC-15; first compound 0.05 µM): 0.218
relative viability (HCC-15; first compound 0.1581 µM): 0.228
relative viability (HCC-15; first compound 0.5 µM): 0.229
relative viability (HCC-44; first compound 0.005 µM): 0.633
relative viability (HCC-44; first compound 0.01581 µM): 0.65
relative viability (HCC-44; first compound 0.05 µM): 0.625
relative viability (HCC-44; first compound 0.1581 µM): 0.603
relative viability (HCC-44; first compound 0.5 µM): 0.558
relative viability (HCC-827; first compound 0.005 µM): 0.27
relative viability (HCC-827; first compound 0.01581 µM): 0.261
relative viability (HCC-827; first compound 0.05 µM): 0.252
relative viability (HCC-827; first compound 0.1581 µM): 0.23
relative viability (HCC-827; first compound 0.5 µM): 0.258
relative viability (LK-2; first compound 0.005 µM): 0.35
relative viability (LK-2; first compound 0.01581 µM): 0.244
relative viability (LK-2; first compound 0.05 µM): 0.281
relative viability (LK-2; first compound 0.1581 µM): 0.332
relative viability (LK-2; first compound 0.5 µM): 0.316
relative viability (NCI-H1437): 0.287

From the supplement of paper PMC10307832
